Source: patent US4609758A, “Phenoxyethylamine derivatives” (American Home Products Corporation, priority 1985, dated 1986)

Experiments:
[1] = tested on: synaptosomal uptake of norepinephrine; test: Inhibition of synaptosomal norepinephrine (3H-NE) uptake; assay type: biochemical; conditions: synaptosomal uptake of 3H-NE, read-out: NE uptake, inhibitory concentration at which the rate of uptake was reduced to 50 percent (IC50)
[2] = target: muscarinic receptor; test: Inhibition of 3H-QNB binding (QNB receptor binding assay); conditions: for Ki / IC50: inhibition of 3H-QNB binding; for anticholinergic property reflected by inhibition of binding of the muscarinic receptor ligand 3H-QNB (in words): 3H-quinuclidinyl benzilate
[3] = tested on: synaptosomal uptake of serotonin (5-HT); test: Inhibition of synaptosomal serotonin (14C-5-HT) uptake; assay type: biochemical; conditions: synaptosomal uptake of 14C-5-HT, read-out: 5-HT uptake, inhibitory concentration at which the rate of uptake was reduced to 50 percent (IC50)

SMILES	IC50 [1] [nM]	Ki [2] [nM]	IC50 [3] [nM]	anticholinergic property reflected by inhibition of binding of the muscarinic receptor ligand 3H-QNB (in words) [2]	IC50 [2] [nM]
CNCCCN1c2ccccc2CCc2ccccc21 [DMI, reference compound]	150	[…]			
CN(C)CC(Oc1ccc(Cl)cc1)C1(O)CCCCC1 (centres unmarked) [Example 1, 1-[1-(4-Chlorophenoxy)-2-(dimethylamino)ethyl]cyclohexanol]	220		170	essentially inactive	> 10000
CN(C)CC(Oc1ccc(Cl)cc1Cl)C1(O)CCCCC1 (centres unmarked) [Example 2, 1-[1-(2,4-Dichlorophenoxy)-2-(dimethylamino)ethyl]cyclohexanol]	3140		530	essentially inactive	> 10000
CN(C)CC(Oc1ccc(Cl)cc1Cl)C1(O)CCCC1 (centres unmarked) [Example 3, 8-[1-(2,4-Dichlorophenoxy)-2-(dimethylamino)ethyl]cyclopentanol]	2250		440		
COc1ccc(OC(CN(C)C)C2(O)CCCCC2)cc1 (centres unmarked) [Example 4, 1-[2-(Dimethylamino)-1-(4-methoxyphenoxy)ethyl]cyclohexanol]	920		180		
COc1ccc(OC(CN(C)C)C2(O)CCCCCC2)cc1 (centres unmarked) [Example 5, 1-[2-(Dimethylamino)-1-(4-methoxyphenoxy)ethyl]cycloheptanol]	810		170		
COc1ccc(OC(CN(C)C)C2(O)CCCC2)cc1 (centres unmarked) [Example 6, 1-[2-(dimethylamino)-1-(4-methoxyphenoxy)ethyl]cyclopentanol]	3140		640		
CN(C)CC(Oc1cccc(C(F)(F)F)c1)C1(O)CCCCC1 (centres unmarked) [Example 7, 1-[2-(dimethylamino)-1-(3-trifluoromethylphenoxy)ethyl]cyclohexanol]	2350		1200		
CN(C)CC(Oc1ccc(C(F)(F)F)cc1)C1(O)CCCCC1 (centres unmarked) [Example 8, 1-[2-Dimethylamino-1-(4-trifluoromethylphenoxy)ethyl]cyclohexanol]	2500		340		
CN(C)CC(Oc1ccc(C(F)(F)F)cc1)C1(O)CCCCCC1 (centres unmarked) [Example 9, 1-[2-Dimethylamino-1-(4-trifluoromethylphenoxy)ethyl]cycloheptanol]	3780		490		
COc1cccc(OC(CN(C)C)C2(O)CCCCC2)c1 (centres unmarked) [Example 10, 1-[2-(Dimethylamino)-1-(3-methoxyphenoxy)ethyl]cyclohexanol]	1160		700		
COc1cccc(OC(CN(C)C)C2(O)CCCCCC2)c1 (centres unmarked) [Example 11, 1-[2-(Dimethylamino)-1-(3-methoxyphenoxy)ethyl]cycloheptanol]	1160		900		
COc1cccc(OC(CN(C)C)C2(O)CCCC2)c1 (centres unmarked) [Example 12, 1-[2-(Dimethylamino)-1-(3-methoxyphenoxy)ethyl]cyclopentanol]	1580		970		
CNCCC(Oc1ccc(C(F)(F)F)cc1)c1ccccc1 (centres unmarked) [Fluoxetine, reference compound]	4500				
CN(C)CCCN1c2ccccc2CCc2ccccc21 [Imipramine, reference compound]	260	37	120		
